From US20260108527A1, “POLO LIKE KINASE 4 INHIBITORS” (ORIC Pharmaceuticals, Inc., priority 2022, published 2026) come the findings set out here.

In experiment [1] the target is T1, human recombinant Aurora A (Homo sapiens, UniProt O14965).
T1 construct: purchased ThermoFisher PR5935A
T1 sequence (O14965 1-403): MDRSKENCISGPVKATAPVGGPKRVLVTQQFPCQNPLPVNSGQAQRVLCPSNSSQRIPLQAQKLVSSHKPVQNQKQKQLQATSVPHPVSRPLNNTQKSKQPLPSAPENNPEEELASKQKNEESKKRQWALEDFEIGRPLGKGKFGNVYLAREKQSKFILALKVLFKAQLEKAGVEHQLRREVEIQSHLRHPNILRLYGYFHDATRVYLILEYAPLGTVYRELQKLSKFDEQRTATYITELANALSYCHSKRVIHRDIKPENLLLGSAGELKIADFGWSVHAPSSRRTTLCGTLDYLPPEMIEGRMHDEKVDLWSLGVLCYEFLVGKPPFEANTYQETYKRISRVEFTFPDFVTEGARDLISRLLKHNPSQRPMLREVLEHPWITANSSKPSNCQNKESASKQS
Briefly: Aurora A Kinase Biochemical Assay (ADP-Glo). The following applies: selectivity ratio; Aurora A 2.5 nM, 20 μM ATP. As to the method:
Activity of human recombinant Aurora A (ThermoFisher, cat #PR5935A) was measured by quantification of adenosine diphosphate (ADP) using the ADP-Glo Kinase Assay Kit (Promega, cat #V9102). Test compounds were solubilized in dimethyl sulfoxide (DMSO) and dispensed into 384-well white polystyrene nonbinding plates (Greiner, cat #781094) using the Echo acoustic dispenser (Labcyte Inc.) in a 11-point 3-fold titration in duplicates. 5 μL of 5.0 nM Aurora A in assay buffer (50 mM HEPES, pH 7.5, 0.01% Brij-35, 0.01% BSA, 10 mM MgCl2, 1 mM EGTA, 1 mM DTT) was added to the plates. Test compounds and Aurora A were incubated for 15 minutes at room temperature (RT). Then 5 μL of a 40 μM adenosine triphosphate (ATP) (Promega, cat #V915B) and 9.3 μM Myelin Basic Protein (MBP) (SignalChem, cat #M42-51N) substrate solution in assay buffer was added and the reaction mixture was incubated for 2 hours at RT. The final concentration of Aurora A, ATP and MBP in the reactions were 2.5 nM, 20 μM and 4.7 μM, respectively. Reactions were stopped and the remaining ATP depleted by adding 10 μL of ADP-Glo reagent (Promega, cat #V912B) and incubating for 40 minutes at RT. The simultaneous conversion of the remaining ADP to ATP and measurement of the newly synthesized ATP was achieved by addition of 20 μL Kinase Detection reagent (Promega, cat #V914B), incubation for 30 min at RT, and luminescence detection using the EnVision plate reader (PerkinElmer). Reactions lacking Aurora A were used as 100% inhibition controls. Reactions containing DMSO alone were used as 0% inhibition controls. The IC50 values reported in Table 2 were determined using four parameter non-linear regression curve fit.
On the technique in general: ADP-Glo first removes unused ATP, then detects ADP through luciferase.

A further experiment concerns CHP134. The experiment is described as follows: CHP134 CellTiter-Glo (CTG) Assay. As to conditions: Homo sapiens, CHP-134, 120 h; viable cells by CellTiter-Glo after 5 days. Format: cell-based. As to the method: […] cells (DSMZ-German Collection of Microorganisms and Cell Cultures, Braunschweig Germany) were cultured in RPMI 1640 supplemented with 10% fetal bovine serum, penicillin (100 U/ml), 1% L-Glutamine and streptomycin ([…]). Cells were seeded (200 cells/well) in 384-well plates for 16 hours. On day two, nine serial 1:3 compound dilutions were made in DMSO in a 96-well plate. The compounds were then further diluted into growth media using a BRAVO robot (Agilent, Santa Clara, CA). The diluted compounds were then added to quadruplicate wells in the 384-well cell plate and incubated at 37° C. and 5% CO2. After 5 days, relative numbers of viable cells were measured by luminescence using CellTiter-Glo® (Promega) according to the manufacturer's instructions and read on a SPARK Multimode Microplate Reader (Tecan, Mannedorf Switzerland). The IC50 calculations for the values reported in Table 2 were carried out using Prism 6.0 software (GraphPad, San Diego).
In general terms: ATP-based viability assays read luminescence as a measure of living cells.

SMILES strings stand for the structures.

As a reminder, the IC50 is the midpoint of a concentration-inhibition curve. On to `COc1ccc2c(c1)[C@]1(C[C@H]1c1ccc3c(Nc4cc5c(cc4OC)S(=O)(=O)CC5)n[nH]c3c1)C(=O)N2` [Example 1, 6-methoxy-5-({6-[(1R,2S)-5′-methoxy-2′-oxo-1′,2′-dihydrospiro[cyclopropane-1,3′-indol]-2-yl]-1H-indazol-3-yl}amino)-2,3-dihydro-1H-1-benzothiophene-1,1-dione], for which the “[Aurora A IC50 (nM)]/[PLK4 IC50 (nM)]” value in experiment [1] was determined as 2164. The same compound displayed an IC50 in the experiment on CHP134 of 242 nM.

On to `COc1ccc2c(c1)[C@]1(C[C@H]1c1ccc3c(Nc4ccc(S(C)(=O)=O)cc4OC)n[nH]c3c1)C(=O)N2` [Example 2, (1R,2S)-2-{3-[4-(methanesulfonyl)-2-methoxyanilino]-1H-indazol-6-yl}-5′-methoxyspiro[cyclopropane-1,3′-indol]-2′(1′H)-one], for which, in experiment [1], the “[Aurora A IC50 (nM)]/[PLK4 IC50 (nM)]” value stood at 801.1462. In the experiment on CHP134, this compound came in with an IC50 of 88.9 nM.

Take `COc1ccc2c(c1)[C@]1(C[C@H]1c1ccc3c(Nc4ccc(C(C)=O)cc4OC)n[nH]c3c1)C(=O)N2` [Example 3, (1R,2S)-2-[3-(4-acetyl-2-methoxyanilino)-1H-indazol-6-yl]-5′-methoxyspiro[cyclopropane-1,3′-indol]-2′(1′H)-one]: the “[Aurora A IC50 (nM)]/[PLK4 IC50 (nM)]” value in experiment [1] is given as 1671.3768. Further, the IC50 in the experiment on CHP134 was determined as 308 nM.

On to `COc1ccc2c(c1)[C@]1(C[C@H]1c1ccc3c(Nc4nc(-c5ncco5)ccc4OC)n[nH]c3c1)C(=O)N2` [Example 4, (1R,2S)-5′-methoxy-2-(3-{[3-methoxy-6-(1,3-oxazol-2-yl)pyridin-2-yl]amino}-1H-indazol-6-yl)spiro[cyclopropane-1,3′-indol]-2′(1′H)-one], for which, in experiment [1], the “[Aurora A IC50 (nM)]/[PLK4 IC50 (nM)]” value stood at 538.2697. Also, the IC50 with CHP134 was found to be 53.1 nM.

Regarding `CCS(=O)(=O)c1ccc(Nc2n[nH]c3cc([C@@H]4C[C@@]45C(=O)Nc4ccc(OC)cc45)ccc23)c(OC)c1` [Example 5, (1R,2S)-2-{3-[4-(ethanesulfonyl)-2-methoxyanilino]-1H-indazol-6-yl}-5′-methoxyspiro[cyclopropane-1,3′-indol]-2′(1′H)-one], the “[Aurora A IC50 (nM)]/[PLK4 IC50 (nM)]” value in experiment [1] is given as 567.6936. For the same compound, inhibition in the experiment with CHP134 was half-maximal at 39.1 nM (IC50).

In the case of `COc1ccc2c(c1)[C@]1(C[C@H]1c1ccc3c(Nc4cc5c(cc4OC)S(=O)(=O)C=C5)n[nH]c3c1)C(=O)N2` [Example 6, 6-methoxy-5-({6-[(1R,2S)-5′-methoxy-2′-oxo-1′,2′-dihydrospiro[cyclopropane-1,3′-indol]-2-yl]-1H-indazol-3-yl}amino)-1H-1-benzothiophene-1,1-dione], the “[Aurora A IC50 (nM)]/[PLK4 IC50 (nM)]” value in experiment [1] is on record as 581.0754. Further, in the experiment with CHP134, the IC50 was determined as 39.4 nM.

In the case of `CCOc1cc(-c2cnccn2)ccc1Nc1n[nH]c2cc([C@@H]3C[C@@]34C(=O)Nc3ccc(OC)cc34)ccc12` [Example 7, (1R,2S)-2-{3-[2-ethoxy-4-(pyrazin-2-yl)anilino]-1H-indazol-6-yl}-5′-methoxyspiro[cyclopropane-1,3′-indol]-2′(1′H)-one], the “[Aurora A IC50 (nM)]/[PLK4 IC50 (nM)]” value in experiment [1] is on record as 10956.01173. For the same compound, in the experiment on CHP134, the IC50 came to 166 nM.

Consider `CCOc1cc2ccccc2nc1Nc1n[nH]c2cc([C@@H]3C[C@@]34C(=O)Nc3ccc(OC)cc34)ccc12` [Example 8, (1R,2S)-2-{3-[(3-ethoxyquinolin-2-yl)amino]-1H-indazol-6-yl}-5′-methoxyspiro[cyclopropane-1,3′-indol]-2′(1′H)-one], for which the “[Aurora A IC50 (nM)]/[PLK4 IC50 (nM)]” value in experiment [1] came out at 27382.2563. It took 490 nM to reach half-maximal inhibition in the experiment with CHP134 (IC50).

Regarding `CCOc1cc(-n2cncn2)ccc1Nc1n[nH]c2cc([C@@H]3C[C@@]34C(=O)Nc3ccc(OC)cc34)ccc12` [Example 10, (1R,2S)-2-{3-[2-ethoxy-4-(1H-1,2,4-triazol-1-yl)anilino]-1H-indazol-6-yl}-5′-methoxyspiro[cyclopropane-1,3′-indol]-2′(1′H)-one], the “[Aurora A IC50 (nM)]/[PLK4 IC50 (nM)]” value in experiment [1] is reported as 2540.3949. This compound gave an IC50 in the experiment on CHP134 of 120 nM.

Regarding `COc1ccc2c(c1)[C@]1(C[C@H]1c1ccc3c(Nc4cc(-c5cnn(C)c5)ccc4OC)n[nH]c3c1)C(=O)N2` [Example 11, (1R,2S)-5′-methoxy-2-{3-[2-methoxy-5-(1-methyl-1H-pyrazol-4-yl)anilino]-1H-indazol-6-yl}spiro[cyclopropane-1,3′-indol]-2′(1′H)-one], the “[Aurora A IC50 (nM)]/[PLK4 IC50 (nM)]” value in experiment [1] is on record as 897.6923. The same compound had a half-maximal inhibitory concentration (IC50) with CHP134 of 110 nM.

Take `CCOc1cc2c(ccc[n+]2[O-])cc1Nc1n[nH]c2cc([C@@H]3C[C@@]34C(=O)Nc3ccc(OC)cc34)ccc12` [Example 12, 7-ethoxy-6-((6-((1R,2S)-5′-methoxy-2′-oxospiro[cyclopropane-1,3′-indolin]-2-yl)-1H-indazol-3-yl)amino)quinoline 1-oxide]: the “[Aurora A IC50 (nM)]/[PLK4 IC50 (nM)]” value in experiment [1] came to 630. Besides, the IC50 with CHP134 was determined as 1100 nM.

For the compound `COc1ccc2c(c1)[C@]1(C[C@H]1c1ccc3c(Nc4cc(-c5ncco5)ccc4OC)n[nH]c3c1)C(=O)N2` [Example 13, (1R,2S)-5′-methoxy-2-{3-[2-methoxy-5-(1,3-oxazol-2-yl)anilino]-1H-indazol-6-yl}spiro[cyclopropane-1,3′-indol]-2′(1′H)-one], in experiment [1], the “[Aurora A IC50 (nM)]/[PLK4 IC50 (nM)]” value is 414.8. The same compound returned an IC50 with CHP134 of 348 nM.

`COc1ccc2c(c1)[C@]1(C[C@H]1c1ccc3c(Nc4cc(-c5nccs5)ccc4OC)n[nH]c3c1)C(=O)N2` [Example 14, (1R,2S)-5′-methoxy-2-{3-[2-methoxy-5-(1,3-thiazol-2-yl)anilino]-1H-indazol-6-yl}spiro[cyclopropane-1,3′-indol]-2′(1′H)-one]: the “[Aurora A IC50 (nM)]/[PLK4 IC50 (nM)]” value in experiment [1] worked out at 187.4804. Further, in the experiment with CHP134, the IC50 was determined as 88.7 nM.

Take `COc1ccc2c(c1)[C@]1(C[C@H]1c1ccc3c(Nc4cc(-c5cscn5)ccc4OC)n[nH]c3c1)C(=O)N2` [Example 15, (1R,2S)-5′-methoxy-2-{3-[2-methoxy-5-(1,3-thiazol-4-yl)anilino]-1H-indazol-6-yl}spiro[cyclopropane-1,3′-indol]-2′(1′H)-one]: in experiment [1], the “[Aurora A IC50 (nM)]/[PLK4 IC50 (nM)]” value came out at 146.5230. The compound further had an IC50 with CHP134 of 93.8 nM.

For the compound `COc1ccc2c(c1)[C@]1(C[C@H]1c1ccc3c(Nc4cc(-c5cocn5)ccc4OC)n[nH]c3c1)C(=O)N2` [Example 16, (1R,2S)-5′-methoxy-2-{3-[2-methoxy-5-(1,3-oxazol-4-yl)anilino]-1H-indazol-6-yl}spiro[cyclopropane-1,3′-indol]-2′(1′H)-one], in experiment [1], the “[Aurora A IC50 (nM)]/[PLK4 IC50 (nM)]” value amounted to 259.1. In the experiment with CHP134, this compound displayed an IC50 of 160 nM.

Turning to `COc1ccc2c(c1)[C@]1(C[C@H]1c1ccc3c(Nc4ccc(-c5nnn(C)n5)cc4OC)n[nH]c3c1)C(=O)N2` [Example 17, (1R,2S)-5′-methoxy-2-{3-[2-methoxy-4-(2-methyl-2H-tetrazol-5-yl)anilino]-1H-indazol-6-yl}spiro[cyclopropane-1,3′-indol]-2′(1′H)-one], the “[Aurora A IC50 (nM)]/[PLK4 IC50 (nM)]” value in experiment [1] was found to be 1000. Also, the IC50 in the experiment on CHP134 amounted to 370 nM.

Turning to `COc1ccc2c(c1)[C@]1(C[C@H]1c1ccc3c(Nc4cc(-c5cnco5)ccc4OC)n[nH]c3c1)C(=O)N2` [Example 18, (1R,2S)-5′-methoxy-2-{3-[2-methoxy-5-(1,3-oxazol-5-yl)anilino]-1H-indazol-6-yl}spiro[cyclopropane-1,3′-indol]-2′(1′H)-one], the “[Aurora A IC50 (nM)]/[PLK4 IC50 (nM)]” value in experiment [1] is 500. This compound returned an IC50 in the experiment on CHP134 of 170 nM.
